# Test results from the OPERA property sets (Mansouri et al. 2018).
# Conditions: not given
Compound,boiling point [°C],melting point [°C],ready biodegradability,log10 Henry constant (atm·m³/mol),log10 vapour pressure (mmHg),log10 Koc (L/kg),log10 Koa,logP
CC(C)CCC[C@@H](C)[C@H]1CC[C@H]2[C@@H]3CC=C4C[C@@H](O)CC[C@]4(C)[C@H]3CC[C@]12C,360,145,,,,,,
COc1ccccc1I,241,,,,,,,
Cc1ncccn1,138,-4,,,,,,
OCC(CO)(CBr)CBr,,113,not readily biodegradable,,,,,
CC(=O)NC(CC(=O)[O-])C(=O)[O-] (stereo not drawn),,138,,,,,,
COc1ccc(CCNCC(O)COc2cccc(C)c2)cc1OC (stereo not drawn),,138,,,,,,
COc1ccc(C(C)(C)C)cc1,238,,,,,,,
OC1CCCCCCCCCCC1,,77.5,,-5.53,,,,
CNC(C)=O,205,28,readily biodegradable,,-0.356,,,
CC(C)=CCN=C(N)N,,62.5,,,,,,
OCC(O)c1ccccc1 (stereo not drawn),273,67.5,,,,,,
O=C(O)Cc1c(-c2ccccc2)c(-c2ccccc2)nn1-c1ccccc1,,200,,,,,,
CCOC(=O)C(=O)OCC,186,-40.6,readily biodegradable,,-0.383,,,
CCCCCCC[N+](=O)[O-],194,,,,,,,
FC(F)(F)I,-22.5,,,,,,,
Cc1c(C)c([N+](=O)[O-])c(C(C)(C)C)c([N+](=O)[O-])c1C,,136,,,,,,
Cc1cc(NC(N)=O)ccc1Br,,,,,,2.37,,
Cc1c(C)c(Br)c(Br)c(Br)c1Br,374,262,,,,,,
O=C(Cl)c1ccco1,173,-2,,,,,,
Nc1ccc([N+](=O)[O-])c2c1C(=O)c1c(Cl)ccc(Cl)c1C2=O,,307,,,-12.4,,,
C[C@]12CCc3c(ccc4cc(O)ccc34)[C@@H]1CCC2=O,,258,,,,,,
BrCCCCBr,197,-16.5,,,-0.211,,,
Clc1ccc2ccccc2n1,266,38,,,,,,

Compound,boiling point [°C],melting point [°C],ready biodegradability,log10 Henry constant (atm·m³/mol),log10 vapour pressure (mmHg),log10 Koc (L/kg),log10 Koa,logP
CC(=O)Nc1ccc(Br)cc1,,,,,,1.95,,
O=C(O)[C@H](O)[C@@H](O)C(=O)O,,,readily biodegradable,,,,,
C=COC,5.5,-122,,,3.12,,,
CC1=CC2CC1C1C(=O)OC(=O)C21 (stereo not drawn),,,not readily biodegradable,,,,,
COc1cc2c(c3oc(=O)c4c(c13)CCC4=O)[C@@H]1CCO[C@@H]1O2,,288,,,,,,
CCOC(=O)C(Cc1ccccc1)C(=O)OCC,300,,,,,,,
CC(c1ccccc1)c1ccccc1O (stereo not drawn),,,not readily biodegradable,,,,,
CC1=CCCC1,75.5,-126,,,,,,
C#CC(C)(O)c1ccccc1 (stereo not drawn),218,52.3,,,,,,
O=C1OC(c2cc(Br)c(O)c(Br)c2)(c2cc(Br)c(O)c(Br)c2)c2ccccc21,,296,,,,,,
O=C(S)c1ccccc1,,24,,,,,,
FC(F)(F)C1(F)C(F)(F)C(F)(F)C(F)(F)C(F)(F)C1(F)C(F)(F)F (stereo not drawn),,,not readily biodegradable,,,,,
O=C(O)COc1ccc2ccccc2c1,,156,,,,,,
CCCCC(CC)CNC1CCCCC1 (stereo not drawn),270,,,,,,,
FC(Cl)(Cl)I,90,-107,,,,,,
CC(C)C12C=CC(C)(CC1)OO2 (stereo not drawn),,3.3,,,,,,
CN(C)CCC(O)(c1ccccc1)c1ccccc1Cl (stereo not drawn),,120,,,,,,
CCS(=O)CCSP(=O)(OC)OC (stereo not drawn),,,,,-4.55,1,,
C[Si](Cl)(Cl)c1ccccc1,206,,,,-0.312,,,
CS(=O)(=O)c1ccc(C(=O)O)cc1,,270,,,,,,
COc1cc2c(cc1O)CCN[C@@H]2C,,222,,,,,,
CCOC(CCl)OCC,157,,,,,,,
COCN(COC)c1nc(N(COC)COC)nc(N(COC)COC)n1,,,not readily biodegradable,,,,,

Compound,boiling point [°C],melting point [°C],ready biodegradability,log10 Henry constant (atm·m³/mol),log10 vapour pressure (mmHg),log10 Koc (L/kg),log10 Koa,logP
CCCC=CC=O,,,,-4.31,,,,
CCN=Cc1ccccc1,196,,,,,,,
N#Cc1ccccn1,224,29,,,,,,
Brc1ccc(Oc2cc(Br)c(Br)cc2Br)c(Br)c1,,,,,-7.51,,11.3,7.32
COc1ccc(C(=O)O)c(OC)c1OC,,100,,,,,,
CC1(C)CON(Cc2ccccc2Cl)C1=O,275,25,,,-3.84,2.44,,
CN(CCO)c1nc2c(c(=O)n(C)c(=O)n2C)n1C,,105,,,,,,
CC(=O)c1c(C)cc(C)cc1C,241,,,,,,,
NC(=O)N1c2ccccc2C=Cc2ccccc21,,190,,,,,,
CCCCCC[Si](Cl)(Cl)Cl,190,,,,,,,
CCCCCCCCCCCCCl,260,-9.3,readily biodegradable,,-2.2,,,
FC1(F)C(F)(F)C(F)(F)C(F)(F)C(F)(F)C1(F)F,50.6,,,,2.23,,,
O=C1C=C(Nc2ccccc2)C(=O)c2ccccc21,,193,,,,,,
CCCCCCCCCCCCCCCCCc1ccccc1,397,32,,,,,,
COC(=O)c1ccc(O)cc1O,,120,,,,,,
O=C1C(=O)c2cccc3cccc1c23,,261,,,,,,
CCc1ccc(C(=O)O)cc1,,112,,,,,,
CC1=C(C)C(=O)C(C)=C(C)C1=O,,112,,,,,,
C=CC[C@@H](C)CC,86.7,-142,,,1.87,,,
CC1=C[C@H](O)CC(C)(C)[C@H]1/C=C/C(C)=C/C=C/C(C)=C/C=C/C=C(C)/C=C/C=C(C)/C=C/C1=C(C)C[C@@H](O)CC1(C)C,,196,,,,,,
CC(=O)OCCCOC(C)=O,210,,,,,,,
N[C@H](Cc1ccccc1)c1ccccc1,311,,,,,,,
NC(=O)Nc1cccc(Cl)c1,,,,,,2.01,,

Compound,boiling point [°C],melting point [°C],ready biodegradability,log10 Henry constant (atm·m³/mol),log10 vapour pressure (mmHg),log10 Koc (L/kg),log10 Koa,logP
Clc1cc(Cl)c(Cl)nc1Cl,250,90.5,,,,,,
COc1cccc(CO)c1,252,,,,,,,
CCOC(=O)c1ccc(F)cc1,210,26,,,,,,
c1ccc(SSc2ccccc2)cc1,310,62,,,-3.66,,,
CCCCCCCCCCOC(=O)CCCCCCCCC,,9.7,,,,,,
COc1cc(Cl)cc(OC)c1,234,35,,,,,,
Oc1c(Cl)cc(Cl)cc1Br,,68,,,,,,
COc1ccccc1,154,-37.5,readily biodegradable,,0.549,1.54,4.01,
CC1=C(O)C(=O)CC1,,106,,,,,,
c1ccc2[nH]c(-c3cscn3)nc2c1,,300,,,-8.4,3.24,,
C[C@]12CC[C@@H](O)C[C@H]1CC[C@@H]1[C@@H]2C(=O)C[C@@]2(C)[C@H]1CC[C@]2(O)C(=O)CO,,214,,,,,,
CC(O)CCCCO (stereo not drawn),237,,,,,,,
CCCNC(C)C(=O)Nc1ccccc1C (stereo not drawn),,37.5,,,,,,
CC(O)C(C)O[N+](=O)[O-] (stereo not drawn),,,,-7,,,,
CCN(CC)c1ccc(C=O)cc1,,41,not readily biodegradable,,,,,
CCOC(OCC)c1ccco1,192,,,,,,,
O=C1CCc2cccc3c2N1CC3,,112,,,-5.92,,,
Cc1ccc(SSc2ccc(C)cc2)cc1,,47.5,,,,,,
CC(/C=C/C=C(C)/C=C/[C@@]1(O)C(C)(C)CCC[C@@]1(C)O)=C\C=C\C=C(C)\C=C\C(=O)O,,213,,,,,,
Cc1ccccc1-c1ccccc1C,256,19.5,,,,,,
Cc1ccc(OC(=O)c2ccccc2)cc1,316,71.5,,,,,,

# Same assay, conditions: fish
Compound,log10 BCF,log10 biotransformation half-life (days)
OCC(CO)(CBr)CBr,0.68,-1.4
COCN(COC)c1nc(N(COC)COC)nc(N(COC)COC)n1,0.54,
Brc1ccc(Oc2cc(Br)c(Br)cc2Br)c(Br)c1,6.01,1.95
